Experimental data reported in patent US20140142055A1, “METHODS OF TREATING RECURRENT MEIBOMIAN GLANDS DISORDER AND THEREBY DECREASING THE FREQUENCY OF RECURRENCE” (INSITE VISION CORPORATION, priority 2011, published 2014).

Assay: Release of fluorometholone from the gelled aqueous polymer suspension in the rabbit eye, measured in the aqueous humor
Type: in vivo
Details: topical sustained-release aqueous suspension of lightly cross-linked carboxyl-containing polymer
Procedure: The viscous gels that result from fluid eye drops delivered by means of the aqueous suspensions have residence times in the eye ranging from about 2 to about 12 hours, e.g., from about 3 to about 6 hours. The active ingredients contained in these ophthalmically acceptable vehicles can be released from the gels at rates that depend on such factors as the active ingredient itself and its physical form, the extent of drug loading and the pH of the system, as well as on any drug delivery adjuvants, such as ion exchange resins compatible with the ocular surface, which can also be present.

CC(=O)[C@@]1(O)CC[C@H]2[C@@H]3C[C@H](C)C4=CC(=O)C=C[C@]4(C)[C@@]3(F)[C@@H](O)C[C@@]21C [fluorometholone]
release rates in the rabbit eye, as measured by fluorometholone contained in the aqueous humor: in excess of four hours
